Consider one compound from publication PMC5433351 (Metabolic engineering, 2016).

This assay addresses HPCS, 3-hydroxypropionyl-CoA synthetase (HPCS/HPCD complex) (Metallosphaera sedula, UniProt A4YGR1). As to conditions: ATP 3 mM, CoA 0.1 mM, MgCl2 20 mM, NADPH 0.5 mM, pH 6.5, 65°C.

HPCS, 3-hydroxypropionyl-CoA synthetase (HPCS/HPCD complex), sequence (A4YGR1 whole entry): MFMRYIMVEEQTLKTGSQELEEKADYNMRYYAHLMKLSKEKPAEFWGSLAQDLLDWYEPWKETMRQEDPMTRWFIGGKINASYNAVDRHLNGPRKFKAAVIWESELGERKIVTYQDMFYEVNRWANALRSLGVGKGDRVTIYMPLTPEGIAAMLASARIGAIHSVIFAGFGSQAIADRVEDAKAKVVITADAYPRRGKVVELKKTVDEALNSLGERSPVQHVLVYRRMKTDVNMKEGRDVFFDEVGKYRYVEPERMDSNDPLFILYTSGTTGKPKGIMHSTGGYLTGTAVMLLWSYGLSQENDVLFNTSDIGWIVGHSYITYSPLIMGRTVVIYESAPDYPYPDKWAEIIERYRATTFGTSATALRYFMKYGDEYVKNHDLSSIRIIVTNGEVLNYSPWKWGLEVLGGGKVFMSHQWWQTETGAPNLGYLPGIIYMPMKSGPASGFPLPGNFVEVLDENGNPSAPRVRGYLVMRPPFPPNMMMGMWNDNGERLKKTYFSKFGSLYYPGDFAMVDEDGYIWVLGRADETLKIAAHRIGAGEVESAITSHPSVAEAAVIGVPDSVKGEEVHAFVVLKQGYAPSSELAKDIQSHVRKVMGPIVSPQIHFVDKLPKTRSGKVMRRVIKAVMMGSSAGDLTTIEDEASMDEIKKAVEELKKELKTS
HPCS, 3-hydroxypropionyl-CoA synthetase (HPCS/HPCD complex), sequence (A4YI89 whole entry partner): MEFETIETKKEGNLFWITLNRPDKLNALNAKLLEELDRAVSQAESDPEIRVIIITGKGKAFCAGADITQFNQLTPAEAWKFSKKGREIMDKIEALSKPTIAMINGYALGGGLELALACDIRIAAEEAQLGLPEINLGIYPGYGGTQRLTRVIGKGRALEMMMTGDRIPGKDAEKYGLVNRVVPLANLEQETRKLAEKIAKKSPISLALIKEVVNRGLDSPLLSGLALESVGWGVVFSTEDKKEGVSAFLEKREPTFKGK

Consider `O=C(O)CCO` [3-Hydroxypropionate], for which the “HPLC of propionyl-CoA formed with HPCS/HPCD and ACR” value was “Formation of propionyl-CoA from 3HP by HPCS, HDCD, and ACR”.
